Laboratory results: ChEMBL document CHEMBL1201862, “PubChem BioAssay data set” (2004)
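Five concentrations, 48 hours, 96-well plates. The concentration for 50% growth inhibition is given as GI50.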 Activity calls are given as the source filed them. No stated cut-off is given here; in the data, active = GI50 up to about 1.1 µM and inactive = higher.

Tests used:
Experiment in all cases: growth of human tumour cells (NCI), 48 h
PC-3 = tested on: PC-3
UACC-257 = tested on: UACC-257
NCI/ADR-RES = tested on: NCI/ADR-RES
MOLT-4 = tested on: MOLT-4
SF-539 = tested on: SF-539
SW-620 = tested on: SW-620
DU-145 = tested on: DU-145
ACHN = tested on: ACHN
KM12 = tested on: KM12
SK-MEL-2 = tested on: SK-MEL-2
SF-268 = tested on: SF-268
UACC-62 = tested on: UACC-62
NCI-H226 = tested on: NCI-H226
Hs-578T = tested on: Hs-578T
OVCAR-8 = tested on: OVCAR-8
Malme-3M = tested on: Malme-3M
OVCAR-4 = tested on: OVCAR-4
NCI-H522 = tested on: NCI-H522
HT-29 = tested on: HT-29

Row | Compound | GI50 (PC-3) | GI50 (UACC-257) | GI50 (NCI/ADR-RES) | GI50 (MOLT-4) | GI50 (SF-539) | GI50 (SW-620) | GI50 (DU-145) | GI50 (ACHN) | GI50 (KM12) | GI50 (SK-MEL-2) | GI50 (SF-268) | GI50 (UACC-62) | GI50 (NCI-H226) | GI50 (Hs-578T) | GI50 (OVCAR-8) | GI50 (Malme-3M) | GI50 (OVCAR-4) | GI50 (NCI-H522) | GI50 (HT-29)
1 | O=c1oc2ccccc2c2c(=O)c3ccc(OC/C(=N/O)c4ccc(Cl)cc4)cc3oc12 | 7.48 µM (inactive) | 33.9 µM (inactive) | 7.35 µM (inactive) | 5.06 µM (inactive) | 7.89 µM (inactive) | 12.8 µM (inactive) | 18.6 µM (inactive) | 5.85 µM (inactive) | 3.11 µM (inactive) | 4.85 µM (inactive) | 14.2 µM (inactive) | 5.07 µM (inactive) | 17.4 µM (inactive) | 8.3 µM (inactive) | 24 µM (inactive) |  |  |  | 
2 | CC(C)(C)OC(=O)N1CC(O)O[C@H](c2ccccc2)[C@@H]1c1ccccc1 (stereo partly specified) | 14.7 µM (inactive) | 17.7 µM (inactive) | 26.4 µM (inactive) | 30.4 µM (inactive) |  | 16.6 µM (inactive) | 25.5 µM (inactive) |  | 19.2 µM (inactive) | 14.5 µM (inactive) | 25.5 µM (inactive) | 14.3 µM (inactive) | 20.6 µM (inactive) | 32.4 µM (inactive) | 29.7 µM (inactive) | 19.4 µM (inactive) | 18.5 µM (inactive) | 21.2 µM (inactive) | 20.6 µM (inactive)
3 | S=C(NCCc1ccccn1)c1nc[nH]c1C(=S)NCCc1ccccn1 | 39.2 µM (inactive) | > 100 µM (inactive) | 20.5 µM (inactive) |  |  | 32.5 µM (inactive) | 30.8 µM (inactive) | 36.3 µM (inactive) | 24 µM (inactive) | 47.8 µM (inactive) | 66.1 µM (inactive) | 22.7 µM (inactive) | 46.8 µM (inactive) | 20.7 µM (inactive) | 28.4 µM (inactive) | 35.4 µM (inactive) | 33.8 µM (inactive) |  | > 100 µM (inactive)
4 | CC(=O)C1=C(C)N2C(=NC3=C(CCc4ccccc43)C2c2cccc(Br)c2)S1 (stereo unspecified) | > 100 µM (inactive) | 84.1 µM (inactive) | > 100 µM (inactive) |  | > 100 µM (inactive) | > 100 µM (inactive) | > 100 µM (inactive) | > 100 µM (inactive) | 49.7 µM (inactive) | > 100 µM (inactive) | > 100 µM (inactive) | 68.2 µM (inactive) | 79.6 µM (inactive) | 67.1 µM (inactive) | > 100 µM (inactive) |  | > 100 µM (inactive) |  | 22.1 µM (inactive)
5 | Cn1c2c(c3ccccc3c1=O)C(=O)c1ccccc1-2 | > 100 µM (inactive) | > 100 µM (inactive) | 51.2 µM (inactive) | 3.07 µM (inactive) | 19.7 µM (inactive) | > 100 µM (inactive) | > 100 µM (inactive) |  | > 100 µM (inactive) | > 100 µM (inactive) | 51.8 µM (inactive) | 59 µM (inactive) | 63.8 µM (inactive) | > 100 µM (inactive) | 32.9 µM (inactive) | > 100 µM (inactive) | 29.9 µM (inactive) | 11.7 µM (inactive) | 97.5 µM (inactive)
6 | Fc1ccc(OCc2ccc3nc(-c4ccccc4)c(Cl)nc3c2)cc1 | 37.2 µM (inactive) | > 100 µM (inactive) | 34.1 µM (inactive) | 21.6 µM (inactive) | 16 µM (inactive) | 77.3 µM (inactive) | 30.5 µM (inactive) | 25.4 µM (inactive) | 51.6 µM (inactive) | 41.9 µM (inactive) | 26 µM (inactive) | 28.8 µM (inactive) |  | 24.7 µM (inactive) | 36.4 µM (inactive) | 9.44 µM (inactive) | 39.5 µM (inactive) | 6.19 µM (inactive) | 65.2 µM (inactive)
7 | Nc1nc(N)c2nn(-c3ccc(C(=O)O)cc3)nc2n1 | > 100 µM (inactive) | > 100 µM (inactive) | > 100 µM (inactive) | > 100 µM (inactive) | > 100 µM (inactive) | > 100 µM (inactive) | > 100 µM (inactive) | > 100 µM (inactive) | > 100 µM (inactive) | > 100 µM (inactive) | > 100 µM (inactive) | > 100 µM (inactive) | > 100 µM (inactive) | > 100 µM (inactive) | > 100 µM (inactive) |  | > 100 µM (inactive) | > 100 µM (inactive) | > 100 µM (inactive)
8 | Cn1c2ccccc2n2c3ccccc3c3nnc(N)c-3c12 | 68.2 µM (inactive) | 51.1 µM (inactive) | > 100 µM (inactive) | 7.67 µM (inactive) |  | 57.8 µM (inactive) | 33.7 µM (inactive) | 91.2 µM (inactive) | 61.5 µM (inactive) | 22.6 µM (inactive) | 0.589 µM (active) | 73.6 µM (inactive) | > 93.1 µM (inactive) | 1.69 µM (inactive) | 8.18 µM (inactive) | 10.5 µM (inactive) | 41 µM (inactive) | 8.53 µM (inactive) | > 100 µM (inactive)
